The test system of the experiment is mustard oil-induced acute neurogenic inflammation in the paw skin of the rat. Nature of the experiment: 1% mustard oil-induced plasma protein extravasation in the acutely denervated rat hindpaw skin, Evans blue leakage. The class given is in vivo. As to conditions: for Evans blue leakage in the rat hindpaw skin / Evans blue leakage in the rat hindpaw skin, Mean: 1% mustard oil; for Evans blue leakage in the rat hindpaw skin: individual paws (rats 1-8, left/right). The protocol: For the in vivo rat and mouse experiments, 5.5 ml of the 1 mg/ml stock solution of CYT-1010 was prepared freshly every experimental day with 20% HPCD dissolved in sterile distilled water. […] The vehicle was 20% HPCD dissolved in sterile distilled water. Further dilutions of the compound for the smaller administered doses were made with this vehicle, the 500 μg/ml and 100 μg/ml concentrations looked opalescent and the lower concentrations were clear. In rats 0.1 ml/100 g, in mice 0.1 ml/10 g volumes were administered i.v. 10 min before the induction of the inflammation.
Both hindlegs of the rats were acutely denervated (the sciatic and the saphenous nerves were cut 30 min before the induction of inflammation) under deep sodium thiopental (50 mg/kg i.p.) anaesthesia to avoid central reflexes. Acute neurogenic inflammation in the dorsal skin of the hindpaws was evoked by topical application of 1% mustard oil (allylisothiocianante) dissolved in paraffin oil. Mustard oil in concentrations below 5% selectively stimulates TRPA1 ion channels on capsaicin-sensitive peptidergic nerves and induces the release of pro-inflammatory sensory neuropeptides such as CGRP and substance P, which cause vasodilation and plasma protein extravasation in the innervated area.
CYT-1010 (1, 10, 100 and 1000 μg/kg; 0.1 ml/100 g from the 1, 10, 100 and 1000 μg/ml solutions) was administered i.v. 5 min before the induction of the inflammation by mustard oil smearing. Rats in the control group were treated with the same volume of the vehicle, 20% hydroxypropyl-β-cyclodextrin (dissolved in sterile distilled water). The experimental protocol is also illustrated in FIG. 2.
40 male Wistar rats (220-260 g) altogether were divided into 5 experimental groups: Group 1: 8 vehicle-treated controls (n=8); Group 2: 1 μg/kg CYT-1010 (n=8); Group 3: 10 μg/kg CYT-1010 (n=8); Group 4: 100 μg/kg CYT-1010 (n=8); and Group 5: 1000 μg/kg CYT-1010 (n=8).
This study was undertaken in blocks with 10 rats per occasion. The whole set of data was obtained during 4 days, and there were rats of each group every day.
Extravasation of plasma albumin was measured by the Evans blue leakage method. Evans blue (50 mg/kg) was injected i.v. and neurogenic inflammation was induced 10 min later. Rats were killed by exsanguination 20 min after mustard oil application. The skin of the hindpaws was removed and the extravasated dye was extracted with formamide for 72 h at room temperature for photometric determination at 620 nm. The amount of the accumulated Evans blue, which quantitatively correlates with the intensity of plasma extravasation, was expressed as dye/g wet tissue (Szolcsányi and Barthó 1981; Helyes et al., 1997, 2001, 2006). Each of these publications is incorporated herein by reference in its entirety.
Results are expressed as the mean±s.e.m. and analyzed for statistical significance with one-way ANOVA followed by Dunnett post-hoc test when the data were compared to the control group. In the rat in vivo studies, multiple comparisons were also made with Bonferroni's modified t-test to compare the effects of the different doses to each other. *p<0.05 was considered to be significant.

Molecules are shown by their SMILES. Where “and” joins values, the source holds several entries; their conditions need not be identical. Equal values may be shown once. Entries after “also recorded” stand apart in the source; their conditions may differ.

For `NC(Cc1ccc(O)cc1)C(=O)NC1CCCCNC(=O)C(Cc2ccccc2)NC(=O)C(Cc2c[nH]c3ccccc23)NC1=O` [CYT-1010, H-Tyr-c-[D-Lys-Trp-Phe]], for the setting “1 μg/kg i.v. (smallest/lowest dose)”, the “Inhibition of mustard oil-induced plasma protein extravasation” value was roughly 60%. Further, the “Evans blue leakage in the rat hindpaw skin” value (1 μg/kg i.v.) was 63.04 μg/g wet skin and 42.27 μg/g wet skin and 3.46 μg/g wet skin and 41.04 μg/g wet skin and 31.69 μg/g wet skin and 46.87 μg/g wet skin and 49.44 μg/g wet skin and 47.62 μg/g wet skin and 77.51 μg/g wet skin and 53.72 μg/g wet skin and 48.91 μg/g wet skin and 59.80 μg/g wet skin and 65.26 μg/g wet skin and 48.52 μg/g wet skin and 44.06 μg/g wet skin and 33.73 μg/g wet skin; the “Evans blue leakage in the rat hindpaw skin” value (10 μg/kg i.v.) was 87.67 μg/g wet skin and 79.89 μg/g wet skin and 77.63 μg/g wet skin and 87.14 μg/g wet skin and 108.49 μg/g wet skin and 73.59 μg/g wet skin and 65.69 μg/g wet skin and 78.05 μg/g wet skin and 94.66 μg/g wet skin and 36.25 μg/g wet skin and 51.07 μg/g wet skin and 41.10 μg/g wet skin and 46.38 μg/g wet skin and 91.18 μg/g wet skin and 61.48 μg/g wet skin and 77.24 μg/g wet skin; the “Evans blue leakage in the rat hindpaw skin” value (100 μg/kg i.v.) is 71.20 μg/g wet skin and 54.84 μg/g wet skin and 83.92 μg/g wet skin and 49.09 μg/g wet skin and 54.86 μg/g wet skin and 59.74 μg/g wet skin and 88.54 μg/g wet skin and 56.89 μg/g wet skin and 75.00 μg/g wet skin and 56.81 μg/g wet skin and 63.41 μg/g wet skin and 68.93 μg/g wet skin and 49.74 μg/g wet skin and 52.19 μg/g wet skin and 49.21 μg/g wet skin and 80.28 μg/g wet skin; the “Evans blue leakage in the rat hindpaw skin” value (1000 μg/kg i.v.) was 55.85 μg/g wet skin and 66.07 μg/g wet skin and 85.40 μg/g wet skin and 79.34 μg/g wet skin and 154.03 μg/g wet skin and 74.05 μg/g wet skin and 88.00 μg/g wet skin and 62.92 μg/g wet skin and 55.80 μg/g wet skin and 67.62 μg/g wet skin and 57.47 μg/g wet skin and 37.45 μg/g wet skin and 46.10 μg/g wet skin and 76.56 μg/g wet skin and 54.68 μg/g wet skin and 63.41 μg/g wet skin. The “Evans blue leakage in the rat hindpaw skin, Mean” value runs as follows: (1 μg/kg i.v.) 47.31 μg/g wet skin; (10 μg/kg i.v.) 72.34 μg/g wet skin; (100 μg/kg i.v.) 63.42 μg/g wet skin; (1000 μg/kg i.v.) 70.30 μg/g wet skin. Moreover, the “Effect on mustard oil-induced plasma protein extravasation in the rat skin” value (1, 10, 100 and 1000 μg/kg i.v. pretreatment) is given as “significant inhibition; also recorded: significant anti-inflammatory effect; also recorded: significantly decreased”.

The values above are taken from patent US11324798B2, “Materials and methods for treatment of inflammation” (CYTOGEL PHARMA, LLC, priority 2010, dated 2022).
